Where “and” joins values, the source holds several entries; their conditions need not be identical. Identical values can stand only once.
Columns and labels:
[1] = system: cultured human mast cells (CHMC); experiment: CHMC low cell density ionomycin activation: tryptase assay; format: cell-based
[2] = system: cultured human mast cells (CHMC); experiment: CHMC high cell density IgE activation: histamine; format: cell-based; conditions: anti-IgE activation
Summary of the method: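 IgE-sensitized CHMC at 1-2×10^6 cells/ml were pretreated with compound for 1 h at 37 °C (0.5% DMSO final), then anti-IgE-stimulated for 1 h and supernatant collected. Hexosaminidase was read with a fluorogenic substrate. Pellets were re-incubated 7 h with compound before supernatant ELISAs.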

[3] = system: bone marrow derived mast cells (BMMC); experiment: BMMC high cell density IgE activation: TNFalpha; format: cell-based, mouse; conditions: anti-IgE, second part of TABLE 1, read-out: BMMC anti-IgE TNF-alpha IC50
Summary of the method: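 IgE-sensitized BMMC (1-3×10^6 cells/ml, MT buffer) were pretreated with compound for 1 h at 37 °C in 0.5% DMSO, then stimulated with DNP-BSA (6× stimulus, 60 ng/ml) for 1 h. Supernatant was taken, and cells were re-incubated 4–5 h in WEI-conditioned medium with compound. Mediators were quantified by ELISA.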

basophil cells = experiment: Basophil dustmite activation: histamine release assay; format: cell-based; conditions: human basophils, house dustmite stimulus; second part of TABLE 1
Protocol: The basophil activation assay was carried out using whole human peripheral blood from donors allergic to dust mites with the majority of the red blood cells removed by dextran sedimentation. Human peripheral blood was mixed 1:1 with 3% dextran T500 and RBCs were allowed to settle for 20-25 min. The upper fraction was diluted with 3 volumes of D-PBS and cells were spun down for 10 min at 1500 rpm, RT. Supernatant was aspirated and cells were washed in an equal volume MT-buffer. Finally, cells were resuspended in MT-buffer containing 0.5% DMSO in the original blood volume. 80 uL cells were mixed with 20 uL compound in the presence of 0.5% DMSO, in triplicate, in a V-bottom 96-well tissue culture plate. A dose range of 8 compound concentrations was tested resulting in a 10-point dose response curve including maximum (stimulated) and minimum (unstimulated) response. […] The cells were stimulated for 30 minutes at 37° C., 5% CO2. The plate was spun for 10 min at 1500 rpm at room temperature and 80 uL the supernatant was harvested for histamine content analysis using the histamine ELISA kit supplied by Immunotech. The ELISA was performed according to supplier's instructions.

Jurkat cells = experiment: Jurkat toxicity, Cell Titer Glo assay; format: cell-based; conditions: 18 hours incubation
Protocol: Seed 50 μl cells (1×10^6/ml) into each well containing 50 μl compound. […] Shake plates for 1 minute to mix cells and compound. Incubate plates at 37° C. […] Next day, harvest 50 μl cells from each well, add to 50 μl Cell Titer Glo reagent ([…]). Shake plates for 1 minute. Read on luminometer.

[4] = Sheep model of allergic asthma (Ascaris suum challenge); format: in vivo; conditions: aqueous suspension; for LAR and AHR (in words) / AHR (% inhibition) / EAR (% inhibition) / LAR (% inhibition): 45 mg/sheep; for LAR and AHR (in words): 60 minutes prior to allergen challenge; for AHR (% inhibition) / EAR (% inhibition) / LAR (% inhibition): pretreatment 60 min
Protocol: Sheep develop bronchoconstriction within minutes of exposure to inhaled antigen (Ascaris suum), with maximal airflow obstruction during the early allergic response (EAR). Release of preformed mast cell mediators is likely responsible for this early phase of airflow obstruction. […] In the sheep, AHR develops a few hours following antigen challenge, and can persist for up to 2 weeks.
In the sheep model of allergic asthma, sheep are administered aerosols of test article via an endotracheal tube, followed by an aerosol challenge with antigen extracted from the roundworm, Ascaris suum, to which the sheep are naturally allergic. Allergen challenge leads to direct bronchoconstriction (both EAR and LAR) and a persistent non-specific AHR. These three characteristics are similar to those seen in human allergic asthmatics. The activity of the test agent is determined by changes in the lung resistance (RL), which is calculated from measurements of transpulmonary pressure, flow, and respiratory volume. […] The LAR is a less pronounced increase in RL, which starts approximately 5-6 hours following allergen challenge and is resolved by 8 hours post-challenge. Twenty-four hours after the challenge, a dose response to carbachol is measured to determine the AHR, which is expressed as the dose of carbachol required to increase RL by 400% over baseline. (This measurement is referred to as the provocative concentration of carbachol that elicits a 400% increase in RL over baseline (PC400). The data are compared to historical control data for the same individual when administered a saline control aerosol and challenged with Ascaris suum.

Structure (SMILES): CNC(=O)COc1cccc(Nc2ncc(F)c(Nc3cccc(O)c3)n2)c1 [R926508, 5-Fluoro-N4-(3-hydroxyphenyl)-N2-[3-(N-methylamino)carbonylmethyleneoxyphenyl]-2,4-pyrimidinediamine]
- IC50 [1]: > 10 µM
- IC50 [2]: 0.105 µM
- IC50 [3]: 0.054 µM
- IC50 (basophil cells): 0.054 µM
- IC50 (Jurkat cells): > 10 µM
- LAR and AHR (in words) [4]: blocked
- AHR (% inhibition) [4]: 88%
- EAR (% inhibition) [4]: 21%
- LAR (% inhibition) [4]: 90%
- EAR (in words) [4]: greatly reduced

Structure (SMILES): CNC(=O)COc1cccc(Nc2ncc(F)c(Nc3ccc4c(c3)NCCO4)n2)c1 [R921219, N4-(1,4-Benzoxazin-6-yl)-5-fluoro-N2-[3-(N-methylamino)carbonylmethyleneoxyphenyl]-2,4-pyrimidinediamine]
- IC50 [1]: > 10 µM
- IC50 [2]: 0.162 µM
- IC50 [3]: 0.039 µM
- IC50 (basophil cells): 0.02 µM
- IC50 (Jurkat cells): > 10 µM
- LAR and AHR (in words) [4]: blocked
- AHR (% inhibition) [4]: 90%
- EAR (% inhibition) [4]: 54% and 56%
- LAR (% inhibition) [4]: 75%
- EAR (in words) [4]: greatly reduced

Source: patent US9499493B2, “2,4-pyrimidinediamine compounds and their uses” (Rigel Pharmaceuticals, Inc., priority 2002, dated 2016)
